In PMC12566971, “Polyprenylated Acylphloroglucinols from Hypericum rochelii and Hypericum olympicum—Cytotoxic Effects on Non-Tumorigenic Cell Lines and Antibacterial Potential” (Pharmaceuticals, 2025):

System: CCL-1 and HGF cells
Test: Western blot for autophagy proteins Atg5, Atg7, LC3A/B
Assay type: cell-based
Details: 24 h; erufosine 30 µM, HirDM90 IC50
Protocol: For Western blot, CCL-1 and HGF cell lines were chosen, and they were seeded in either 6-well plates or 55 mm Petri dishes suitable for cell culture. They were treated with an exposure time of 24 h in an incubator (Panasonic MCO-18AC, Panasonic Healthcare Ltd., […], Japan). […] Hans-Jörg Eibl. In addition, a higher concentration of an […] added to one of the tests for comparison. The samples were trypsinized, collected, washed with PBS (TS1101, HiMedia, Mumbai, India), centrifuged, and frozen at -80 °C if storage was necessary. Then they were lysed on ice with a buffer containing 100 mM Tris-HCl (648313, Sigma-Aldrich, St. Louis, MO, USA) at pH 8.0, 4% sodium dodecyl sulfate (SDS, […], Sigma-Aldrich), 20% glycerol (49779, Sigma-Aldrich), 1% Na3VO4 (450243, Sigma-Aldrich), 200 mM dithiothreitol (DTT, 3483-12-3, Sigma-Aldrich, Burlington, MA, USA) supplemented with protease inhibitor (05892970001, Roche). The cell lysate was heated to boiling for 15 min, then centrifuged at 13,000 rpm for 10 min at 4 °C. Lysates were subjected to denaturing SDS polyacrylamide gel electrophoresis on acrylamide 4-20% gradient Mini-PROTEAN® TGXTM Stain-Free gels (4568094, Bio-Rad Laboratories, Hercules, CA, USA). […] Densitometric calculation and analysis was performed with Quantity One software version 4.6.9 (Bio-Rad Laboratories).

CCCCCCCC/C=C\CCCCCCCCCCCCOP(=O)([O-])OCC[N+](C)(C)C [erufosine]
Conversion of LC3A/B to the lower migrating form: converted to the lower migrating form visibly
